The subject of data set [1] is human A549 non-small cell lung cancer (NSCLC). Nature of the data set: MTT antiproliferative assay, A549. It is filed as cell-based. To be noted: for GI50: 72 h treatment, MTT assay, sextuplicates, read-out: GI50 in vitro values, A549. As to the method:
(§1) Human mammary carcinoma MCF-7 (ATCC HTB22) cells were cultured in RPMI supplemented with 10% FBS. The U87 cells (ATCC HTB-14) were cultured in DMEM culture medium, while the A549 cells (DSMZ ACC107) were cultured in RPMI culture medium supplemented with 10% heat-inactivated FBS. The GBM Hs683 (ATCC HTB-138) cells were cultivated in DMEM supplemented with 10% FBS. The human uterine sarcoma MES-SA (ATCC CRL1966) and MES-SA/D×5 cells were cultured in RPMI-1640 medium supplemented with 10% FBS with MES SA/D×5 maintained in the presence of 500 nM Doxorubicin (Sigma). SKMEL-28 cells (ATCC HTB72) and U373 GBM cells (ECACC 08061901) were cultured in RPMI culture medium supplemented with 10% heat-inactivated FBS. Cell culture media were supplemented with 4 mM glutamine (Lonza code BE17-605E), 100 μg/mL gentamicin (Lonza code 17-5182), and penicillin-streptomycin (200 units/ml and 200 μg/ml) (Lonza code 17-602E). The MDA-MB-231 (ATCC HTB-26) epithelial mammary adenocarcinoma cells were cultured in Eagle's minimum essential medium (EMEM; Invitrogen) containing 5% fetal calf serum (FCS, Cambrex), 2 mM L-glutamine (Invitrogen), 0.06% HEPES (Invitrogen) and penicillin (50 IU/ml)/streptomycin (50 µg/ml; Invitrogen) at 37° C. in a humidified atmosphere of 5% CO2 in air. Transformed mouse NPCs were cultured in suspension under neurosphere conditions at 37° C. in a humidified atmosphere of […] and 5% CO2 in DMEM F12 (Invitrogen 11320-074) supplemented with 1×B27 supplement (Invitrogen 17504-044), 5% penicillin-streptomycin (Biochrom 10378-017), 10 ng/ml EGF (R&D systems 236-EG), 10 ng/ml FGF (PeproTech 100-18B).
(§2) Antiproliferative properties of the synthesized compounds were evaluated by the MTT assay. All compounds were dissolved in DMSO at a concentration of either 100 μM or 50 μM prior to cell treatment. The cells were trypsinized and seeded at various cell concentrations depending on the cell type. The cells were grown for 24 h to 72 h, treated with compounds at concentrations ranging from 0.001 to 100 μM and incubated for 48 or 72 h in 100 or 200 μL media depending on the cell line used. The number of experiments and replicates varied depending on the cell line. Cells treated with 0.1% DMSO were used as a negative control; 1 μM PAO was used as a positive control.
(§3) The synthesized C12-Wittig derivatives were evaluated for antiproliferative activities in a panel of cancer cell lines that included apoptosis-resistant human U373 glioblastoma (GBM) (Lefranc et al., 2013), human A549 non-small cell lung cancer (NSCLC) and human SKMEL-28 melanoma (Mathieu et al., 2009) as well as apoptosis-sensitive human Hs683 anaplastic oligodendroglioma (Lefranc et al., 2013) and human MCF-7 breast cancer (Frolova et al., 2013).
(In general: Tetrazolium assays rely on reduction of a dye to a coloured formazan, in cell work by metabolically active cells.)

The subject of the next data set is human SKMEL-28 melanoma. Nature of the data set: MTT antiproliferative assay, SKMEL-28. The format is cell-based. To be noted: sextuplicates, read-out: GI50 in vitro values, SKMEL-28. How it is done:
as §1, §2, §3

Data set [2] has as its system human MCF-7 breast cancer. Nature of the data set: MTT antiproliferative assay, MCF-7. To be noted: sextuplicates, read-out: GI50 in vitro values, MCF-7. The format is cell-based. As to the method: as §1, §2, §3
Data set [3] concerns human U373 glioblastoma (GBM). Nature of the data set: MTT antiproliferative assay, U373. To be noted: 72 h treatment, sextuplicates, read-out: GI50 in vitro values, U373. It is filed as cell-based. As to the method:
as §1, §2, §3

For data set [4], the system named is human Hs683 anaplastic oligodendroglioma. Nature of the data set: MTT antiproliferative assay, Hs683. It is filed as cell-based. To be noted: sextuplicates, read-out: GI50 in vitro values, Hs683. As to the method: as §1, §2, §3
Data set [5] concerns panel of cancer cell lines (A549, SKMEL-28, MCF-7, U373, Hs683). Nature of the data set: MTT antiproliferative assay, panel of five cancer cell lines. It is filed as cell-based, human. To be noted: mean over five cell lines, 72 h treatment, MTT assay, read-out: GI50 in vitro values, Mean + SEM. How it is done:
as §2, §3

For the next data set, the system named is OSCC cell line HSC3. Nature of the data set: Cell viability (Cell Titer 96 Aqueous), HSC3. The format is cell-based, human. To be noted: 48 hours; potency order P10, polygodial, P3. The text has this:
(§4) Human cancer cell lines were obtained from the American Type Culture Collection (ATCC, Manassas, Va., USA), the European Collection of Cell Culture (ECACC, Salisbury, UK) and the Deutsche Sammlung von Mikroorganismen und Zellkulturen (DSMZ, Braunschweig, Germany). The OSCC cell lines, Cal27 and HSC3 are derived from human primary tongue tumor. Cal27 cells were obtained from the American Type Culture Collection (Rockville, Md.). HSC3 cells were provided by Dr. Brian Schmidt. HeLa cells (cervical cancer cell line) were obtained from ATCC. Cells were cultured in DMEM, containing 10% FBS and 1% penicillin-streptomycin media, at 37° C. in 5% CO2. All cells were authenticated by Genetic DNA Laboratories.
(§5) The cytotoxicity of polygodial, P10, P3, and P27 in Cal27, HSC3, and HeLa cells was examined in vitro using a colorimetric assay, Cell Titer 96® Aqueous Non-Radioactive Cell Proliferation Assay. […] GraphPad Prism4 was used to perform statistical analysis.

Data set [6] deals with cervical cancer cell line HeLa. Nature of the data set: Cell viability (Cell Titer 96 Aqueous), HeLa. It is filed as cell-based, human. To be noted: 48 hours; potency order P10, polygodial, P3.
Excerpt: as §4, §5

A further data set deals with HeLa-derived tumors. Nature of the data set: Mouse xenograft model, HeLa. It is filed as in vivo, athymic nude mice. How it is done: Six-week old female athymic nude mice were used in laminar air-flow cabinet in pathogen-free conditions. They were acclimated for one week prior to the start of the study and kept at controlled temperature and humidity, with food and water. Mice were injected subcutaneously in the flank with 2×10^6 Cal27 cells or HeLa cells in 0.1 mL of sterile PBS. When the tumors reached 100 mm^3 (Cal27) and 150 mm^3 (HeLa), the mice were stratified into 4 groups, […], polygodial, P10, P3 and P27 at the concentrations noted in the figure legends.

The target in data set [7] is T1, CHO cells that overexpress TRPV1 (CHO-TRPV1) (Homo sapiens, UniProt Q8NER1).
T1 construct: expressed in transfected cells; host or cells: CHO cells
Nature of the data set: Calcium imaging, CHO-TRPV1. It is filed as cell-based. To be noted: polygodial 80 μM, P10 4 μM, P3 50 μM. As to the method: CHO cells that overexpress TRPV1 (CHO-TRPV1) were treated with polygodial (80 μM), P10 ([…]), or P3 (50 μM) and calcium influx was measured. Cells were also pre-treated with the TRPV1 antagonist capsazepine (CPZ; 10 μM) to determine if calcium influx via TRPV1 was inhibited. 3 μM ionomycin was used as a positive control. Fluo-4 Direct Calcium Assay Kit and Sweptfield confocal with Nikon Ti were used to visualize calcium influx and the images were analyzed using ImageJ software.

The subject of another data set is HeLa cells. Nature of the data set: Calcium imaging, HeLa. The format is cell-based, human. To be noted: polygodial 80 μM, P10 4 μM, P3 50 μM.
A further data set deals with HSC3 cells. Nature of the data set: Calcium imaging, HSC3. The format is cell-based, human.
The test system of data set [8] is U87 glioblastoma cell cultures. Nature of the data set: MTT growth curves, U87. The format is cell-based, human. To be noted: apoptosis-resistant U87 GBM; concentrations up to 100 μM. As to the method:
as §1
Antiproliferative properties of the synthesized compounds were evaluated by the MTT assay. All compounds were dissolved in DMSO at a concentration of either 100 μM or 50 μM prior to cell treatment. The cells were trypsinized and seeded at various cell concentrations depending on the cell type. […]

Read-outs that look alike come from different tables or passages of the source.

Data on ten compounds can be found in patent US20180237362A1, “NOVEL POLYGODIAL ANALOGS FOR THE TREATMENT OF CANCER AND OTHER PROLIFERATIVE DISEASES” (THE BOARD OF REGENTS OF THE UNIVERSITY OF TAXAS SYSTEM, priority 2015, published 2018).

Usually GI50 stands for the concentration that inhibits growth by half.

T1 sequence (Q8NER1 whole entry): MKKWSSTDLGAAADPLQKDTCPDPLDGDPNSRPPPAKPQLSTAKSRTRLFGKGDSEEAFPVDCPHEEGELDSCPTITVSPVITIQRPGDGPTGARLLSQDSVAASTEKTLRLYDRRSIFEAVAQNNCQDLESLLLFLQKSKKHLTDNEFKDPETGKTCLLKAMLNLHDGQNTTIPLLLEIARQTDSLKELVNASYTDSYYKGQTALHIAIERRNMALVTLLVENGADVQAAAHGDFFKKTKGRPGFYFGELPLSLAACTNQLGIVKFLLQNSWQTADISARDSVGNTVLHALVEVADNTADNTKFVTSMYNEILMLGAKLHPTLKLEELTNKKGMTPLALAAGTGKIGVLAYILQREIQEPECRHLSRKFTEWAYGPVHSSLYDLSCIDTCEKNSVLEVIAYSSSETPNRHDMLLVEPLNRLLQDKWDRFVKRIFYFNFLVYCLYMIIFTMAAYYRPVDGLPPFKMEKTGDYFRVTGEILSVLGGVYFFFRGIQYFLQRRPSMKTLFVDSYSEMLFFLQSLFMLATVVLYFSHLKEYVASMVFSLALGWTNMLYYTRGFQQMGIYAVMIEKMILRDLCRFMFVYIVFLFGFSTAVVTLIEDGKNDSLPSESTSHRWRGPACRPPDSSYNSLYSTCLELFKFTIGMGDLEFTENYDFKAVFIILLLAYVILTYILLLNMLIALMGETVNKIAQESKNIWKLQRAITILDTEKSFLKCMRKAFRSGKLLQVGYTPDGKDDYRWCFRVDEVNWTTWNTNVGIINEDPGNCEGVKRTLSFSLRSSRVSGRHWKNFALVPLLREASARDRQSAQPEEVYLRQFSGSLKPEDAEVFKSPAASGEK

As for `COC(=O)/C=C/C1=CCC2C(C)(C)CCC[C@]2(C)[C@@H]1C=O` (stereo partly shown), the GI50 in data set [1] (Homo sapiens, A549) is 29 ± 1 µM; with human SKMEL-28 melanoma (Homo sapiens, SK-MEL-28, 72 h treatment), 70 ± 1 µM; in [2] (Homo sapiens, MCF7, 72 h treatment), 28 ± 1 µM; in data set [3] (Homo sapiens, U373 MG), 39 ± 1 µM; in [4] (Homo sapiens, Hs 683, 72 h treatment), 33 ± 0.5 µM; in [5] (Homo sapiens), 40 ± 8 µM.
As for `CCOC(=O)/C=C/C1=CCC2C(C)(C)CCC[C@]2(C)[C@@H]1C=O` (stereo partly shown) [Compound 6], the GI50 is 25 µM in [1]; 29 µM with human SKMEL-28 melanoma (72 h treatment); 30 µM in data set [2] (72 h treatment); 37 µM in data set [3]; 29 µM in [4] (72 h treatment); 30 ± 2 µM in [5].
As for `CCOC(=O)C(C)=CC1=CCC2C(C)(C)CCCC2(C)C1C=O` (stereo not shown) [Compound 7], the 50% growth inhibitory concentration (GI50) in [1] worked out at 26 µM; with human SKMEL-28 melanoma (72 h treatment), 37 µM; in data set [2] (72 h treatment) it was 27 µM; in data set [3], 37 µM; in data set [4] (72 h treatment), 28 µM; in [5] it was 31 ± 2 µM.
With `CC(C)(C)OC(=O)/C=C/C1=CCC2C(C)(C)CCC[C@]2(C)[C@@H]1C=O` (stereo partly shown) [Compound 8], the 50% growth inhibitory concentration (GI50) was 29 µM in data set [1]; 41 µM in the data set with human SKMEL-28 melanoma (72 h treatment); 32 µM in data set [2] (72 h treatment); 40 µM in data set [3]; 29 µM in data set [4] (72 h treatment); 34 ± 3 µM in data set [5].
For `CC1(C)CCCC2(C)C(C=O)C(C=CC(=O)OCc3ccccc3)=CCC12` (stereo not shown) [Compound 9], the GI50 in [1] was 28 µM; in the data set on human SKMEL-28 melanoma (72 h treatment), 39 µM; in data set [2] (72 h treatment), 27 µM; in data set [3] it was 39 µM; in data set [4] (72 h treatment) it was 31 µM; in data set [5] it was 33 ± 3 µM.
In the case of `COC(=O)/C=C/C=C/C1=CCC2C(C)(C)CCC[C@]2(C)[C@@H]1C=O` (stereo partly shown) [Compound 10], the GI50 in data set [1] was found to be 29 µM; with human SKMEL-28 melanoma (72 h treatment) it was 25 µM; in data set [2] (72 h treatment), 31 µM; in [3], 27 µM; in data set [4] (72 h treatment) it was 12 µM; in data set [5], 25 ± 3 µM.
As to `CC1(C)CCC[C@@]2(C)C1CC=C(/C=C/C#N)[C@H]2C=O` (stereo partly shown) [Compound 11], the GI50 in data set [1] is 27 µM; in the data set with human SKMEL-28 melanoma (72 h treatment), 42 µM; in [2] (72 h treatment), 31 µM; in data set [3], 36 µM; in [4] (72 h treatment) it was 28 µM; in data set [5], 33 ± 3 µM.
Turning to `CC(=O)/C=C/C1=CCC2C(C)(C)CCC[C@]2(C)[C@@H]1C=O` (stereo partly shown) [Compound 12], the GI50 amounted to 24 µM in data set [1]; 28 µM in the data set on human SKMEL-28 melanoma (72 h treatment); 20 µM in data set [2] (72 h treatment); 25 µM in data set [3]; 22 µM in data set [4] (72 h treatment); 24 ± 1 µM in data set [5].
In the case of `CC1(C)CCC[C@]2(C)[C@H](C=O)C(C=O)=CC[C@@H]12` [Compound P10, 9-epi-polygodial], the “cancer cell viability, HSC3” value in the data set on OSCC cell line HSC3 is reported as “reduced cancer cell viability in vitro”. In data set [6], the “cancer cell viability, HeLa” value was “reduced cancer cell viability in vitro”. In addition, the “anti-tumor effect, HeLa-derived tumors” value in the data set on HeLa-derived tumors (40 μg/100 μl intra-tumor injection every other day for 18 days, polygodial significantly more efficacious than P3) is on record as “not efficacious in vivo”. Besides, the “adverse effects, HeLa xenograft mice” value in the data set on HeLa-derived tumors (mouse, in vivo) was “no adverse effects in vivo”. Further, the “TRPV1 activation (calcium influx), CHO-TRPV1” value in [7] was “do not”. In addition, in the data set on HeLa cells, the “calcium influx, HeLa” value is “did not induce calcium influx”. For the same compound, in the data set with HSC3 cells (CPZ 10 μM), the “reversal of calcium influx by capsazepine, HSC3” value is on record as “not reversed”. In addition, the “calcium influx, HSC3” value in the data set with HSC3 cells (polygodial 80 μM, P10 4 μM, P3 50 μM) is “did induce calcium influx”.
`COc1cc([C@@H]2c3cc4c(cc3[C@H](O)[C@H]3COC(=O)[C@H]23)OCO4)cc(OC)c1OC` [podophyllotoxin, reference compound]: the “effect on proliferation/viability of all cells, A549” value in data set [1] (apoptosis-resistant A549 NSCLC, concentrations up to 100 μM) is given as “no effect on proliferation of ca. 50% of cells”. The “effect on proliferation/viability of all cells, U87” value in [8] is “no effect on proliferation of ca. 50% of cells”.
